Assay results taken from patent publication US20250388593A1 (MITSUBISHI TANABE PHARMA CORPORATION, priority 2023, published 2025).

These compounds were tested against CRBN truncate (318-426) (Homo sapiens (Human), UniProt Q96SW2) (assay: Measurement of molecular interactions using surface plasmon resonance (SPR), Biacore T200). Conditions: 25° C., immobilized CRBN truncate, upper limit of measurement 200 μM.
Assay type: binding
Outline: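 Compound injections used 60 s association and 120 s dissociation in HEPES pH 7.5 buffer (150 mM NaCl, 1 mM TCEP, 0.005% Tween 20, 2% DMSO). The ligand was CRBN truncate 318-426 bearing a C-terminal Avi-tag, immobilised via streptavidin on an SA sensor chip.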

CRBN truncate (318-426), sequence (Q96SW2 318-426): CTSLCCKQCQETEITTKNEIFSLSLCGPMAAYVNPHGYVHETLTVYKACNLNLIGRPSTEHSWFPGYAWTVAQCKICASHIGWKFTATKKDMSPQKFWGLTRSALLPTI

| Kd [µM] | Structure (SMILES) |
| --- | --- |
| < 50 | Cc1sc2c(c1C)C(c1ccc(Cl)cc1)=N[C@@H](CC(=O)NCCCCCCc1ccc(-c3cn(C4CCCC(=O)NC4=O)nn3)cc1)c1nnc(C)n1-2 (stereo partly drawn) [Example 316, 2-[(9S)-7-(4-chlorophenyl)-4,5,13-trimethyl-3-thia-1,8,11,12-tetraazatricyclo[8.3.0.02,6]trideca-2(6),4,7,10,12-pentaen-9-yl]-N-[6-[4-[1-(2,7-dioxoazepan-3-yl)triazol-4-yl]phenyl]hexyl]acetamide] |
| < 50 | Cc1sc2c(c1C)C(c1ccc(Cl)cc1)=N[C@@H](CC(=O)NCCCCCCCNc1ccc3nc(N4CCCC(=O)NC4=O)sc3c1)c1nnc(C)n1-2 [Example 312, 2-[(9S)-7-(4-chlorophenyl)-4,5,13-trimethyl-3-thia-1,8,11,12-tetraazatricyclo[8.3.0.02,6]trideca-2(6),4,7,10,12-pentaen-9-yl]-N-[7-[[2-(2,4-dioxo-1,3-diazepan-1-yl)-1,3-benzothiazol-6-yl]amino]heptyl]acetamide] |
| ≥ 100 | CC(C)(C)OC(=O)CN1CC2(CC(=O)N(C3CCC(=O)NC3=O)C2=O)C1 (stereo not drawn) [Example 48, tert-Butyl 2-[6-(2,6-dioxopiperidin-3-yl)-5,7-dioxo-2,6-diazaspiro[3.4]octan-2-yl]acetate] |
| ≥ 100 | O=C1CCCC(C(=O)Nc2ccc(F)cc2)C(=O)N1 (stereo not drawn) [Example 28, N-(4-Fluorophenyl)-2,7-dioxoazepane-3-carboxamide] |
| < 50 | CC(C)(C)OC(=O)c1ccc2nc(N3CC4(CC(=O)N(C5CCC(=O)NC5=O)C4=O)C3)sc2c1 (stereo not drawn) [Example 231, tert-Butyl 2-[6-(2,6-dioxopiperidin-3-yl)-5,7-dioxo-2,6-diazaspiro[3.4]octan-2-yl]-1,3-benzothiazole-6-carboxylate] |
| < 50 | Cc1ccc(NC(=O)NCc2ccc(C(=O)N3CCC4(CCCC(=O)NC4=O)C3)cc2)cc1Cl (stereo not drawn) [Example 157, 1-(3-Chloro-4-methylphenyl)-3-[[4-(6,8-dioxo-2,7-diazaspiro[4.6]undecane-2-carbonyl)phenyl]methyl]urea] |
| ≥ 100 | CN(C1CCCC(=O)NC1=O)S(=O)(=O)c1ccc(CNC(=O)OC(C)(C)C)cc1 (stereo not drawn) [Example 27, tert-Butyl N-[[4-[(2,7-dioxoazepan-3-yl)-methylsulfamoyl]phenyl]methyl]carbamate] |
| ≥ 100 | CC(C)(C)OC(=O)c1cnc(N2CCC3(CCCC(=O)NC3=O)C2)cn1 (stereo not drawn) [Example 35, tert-Butyl 5-(6,8-dioxo-2,7-diazaspiro[4.6]undecan-2-yl)pyrazine-2-carboxylate] |
| ≥ 100 | O=C1COCC(NC(=O)c2cccc(-c3ccccc3)c2)C(=O)N1 (stereo not drawn) [Example 22, N-(3,5-dioxo-1,4-oxazepan-6-yl)-3-phenylbenzamide] |
| ≥ 100 | O=C1CCCC2(CCN(c3nc4ncccc4s3)C2)C(=O)N1 (stereo not drawn) [Example 74, 2-([1,3]thiazolo[4,5-b]pyridin-2-yl)-2,7-diazaspiro[4.6]undecane-6,8-dione] |
| ≥ 100 | CN(C1CCCC(=O)NC1=O)S(=O)(=O)c1ccc(CCCCCCNC(=O)OC(C)(C)C)cc1 (stereo not drawn) [Example 271, tert-Butyl N-[6-[4-[(2,7-dioxoazepan-3-yl)-methylsulfamoyl]phenyl]hexyl]carbamate] |
| ≥ 100 | CC(=O)Nc1ccc(Cl)c(C2CCCC(=O)NC2=O)c1 (stereo not drawn) [Example 65, N-[4-Chloro-3-(2,7-dioxoazepan-3-yl)phenyl]acetamide] |
| ≥ 100 | CC(C)(C)OC(=O)c1ccc(C2(F)CCCC(=O)NC2=O)cc1 (stereo not drawn) [Example 243, tert-Butyl 4-(3-fluoro-2,7-dioxoazepan-3-yl) benzoate] |
| ≥ 100 | O=C1CCCC2(CCN(c3ccc(C(F)(F)F)cn3)C2)C(=O)N1 (stereo not drawn) [Example 38, 2-[5-(trifluoromethyl)-2-pyridyl]-2,7-diazaspiro[4.6]undecane-6,8-dione] |
| ≥ 100 | CC(C)(C)OC(=O)NCCCCCCCn1c(=O)n(C2CCCC(=O)NC2=O)c2ncccc21 (stereo not drawn) [Example 201-2] |
| ≥ 100 | CN(C1CCCC(=O)NC1=O)S(=O)(=O)c1cccc(Cl)c1 (stereo not drawn) [Example 10, 3-Chloro-N-(2,7-dioxoazepan-3-yl)-N-methylbenzenesulfonamide] |
| < 50 | CC(C)(C)OC(=O)c1ccc(N2CCC3(CCCC(=O)NC3=O)CC2=O)cc1 (stereo not drawn) [Example 109, tert-Butyl 4-(4,7,9-trioxo-3,8-diazaspiro [5.6]dodecan-3-yl) benzoate] |
| < 50 | CCOC(=O)c1ccc2nc(N3CC4(CC(=O)N(C5CCC(=O)NC5=O)C4=O)C3)sc2c1 (stereo not drawn) [Example 52, Ethyl 2-[6-(2,6-dioxopiperidin-3-yl)-5,7-dioxo-2,6-diazaspiro[3.4]octan-2-yl]-1,3-benzothiazole-6-carboxylate] |
| ≥ 100 | O=C1CCCC(n2ncc(-c3ccccc3)cc2=O)C(=O)N1 (stereo not drawn) [Example 247, 3-(6-oxo-4-phenylpyridazin-1-yl)azepane-2,7-dione] |
| ≥ 100 | CC(=O)N1CCN(Cc2ccc(N3CCC4(CCCC(=O)NC4=O)C3)nc2)CC1 (stereo not drawn) [Example 89, 2-[5-[(4-Acetylpiperazin-1-yl)methyl]pyridin-2-yl]-2,7-diazaspiro[4.6]undecane-6,8-dione] |
| 50 to 100 | CC(C)(C)OC(=O)c1cnc(N2CCCC(=O)NC2=O)s1 [Example 115, tert-Butyl 2-(2,4-dioxo-1,3-diazepan-1-yl) thiazole-5-carboxylate] |
| ≥ 100 | CNC(=O)c1ccc(N2CCC3(CCCC(=O)NC3=O)C2)nc1 (stereo not drawn) [Example 96, 6-(6,8-Dioxo-2,7-diazaspiro [4.6]undecan-2-yl)-N-methylpyridine-3-carboxamide] |
| < 50 | Cc1sc2c(c1C)C(c1ccc(Cl)cc1)=N[C@@H](CC(=O)NCCCCCCc1ccc(C(=O)N3CCC4(CCCC(=O)NC4=O)C3)cc1Cl)c1nnc(C)n1-2 (stereo partly drawn) [Example 323, N-[6-[2-chloro-4-(6,8-dioxo-2,7-diazaspiro[4.6]undecane-2-carbonyl)phenyl]hexyl]-2-[(9S)-7-(4-chlorophenyl)-4,5,13-trimethyl-3-thia-1,8,11,12-tetraazatricyclo[8.3.0.02,6]trideca-2(6),4,7,10,12-pentaen-9-yl]acetamide] |
| ≥ 100 | O=C1CCCC2(CCN(c3ncc([N+](=O)[O-])cc3C(F)(F)F)C2)C(=O)N1 (stereo not drawn) [Example 79, 2-(5-nitro-3-(trifluoromethyl)-2-pyridyl)-2,7-diazaspiro[4.6]undecane-6,8-dione] |
| ≥ 100 | Cn1ccc2c(N3CCC4(CCCC(=O)NC4=O)C3)ncnc21 (stereo not drawn) [Example 37, 2-(7-methylpyrrolo[2,3-d]pyrimidin-4-yl)-2,7-diazaspiro[4.6]undecane-6,8-dione] |
| ≥ 100 | CC(C)(C)OC(=O)c1cnc(N2CCC3(CCCC(=O)NC3=O)C2)nc1 (stereo not drawn) [Example 32, tert-Butyl 2-(6,8-dioxo-2,7-diazaspiro [4.6]undecan-2-yl) pyrimidine-5-carboxylate] |
| ≥ 100 | CC(C)(C)OC(=O)N1CCN(C(=O)c2ccc(N3CCC4(CCCC(=O)NC4=O)C3)nc2)CC1 (stereo not drawn) [Example 97, tert-Butyl 4-[6-(6,8-dioxo-2,7-diazaspiro [4.6]undecan-2-yl)pyridine-3-carbonyl]piperazine-1-carboxylate] |
